Laboratory results published in publication PMC6035319 (Saudi Pharmaceutical Journal : SPJ, 2018).

Columns and labels:
CYP3A4 = CYP3A4 (Homo sapiens, UniProt P08684); assay type: biochemical
CYP1A2 = molecular target: T1, CYP1A2 (Homo sapiens, UniProt P05177); test: HPLC of acetaminophen formed from phenacetin in pooled human liver microsomes; assay type: biochemical
T1 sequence (P05177 2-516): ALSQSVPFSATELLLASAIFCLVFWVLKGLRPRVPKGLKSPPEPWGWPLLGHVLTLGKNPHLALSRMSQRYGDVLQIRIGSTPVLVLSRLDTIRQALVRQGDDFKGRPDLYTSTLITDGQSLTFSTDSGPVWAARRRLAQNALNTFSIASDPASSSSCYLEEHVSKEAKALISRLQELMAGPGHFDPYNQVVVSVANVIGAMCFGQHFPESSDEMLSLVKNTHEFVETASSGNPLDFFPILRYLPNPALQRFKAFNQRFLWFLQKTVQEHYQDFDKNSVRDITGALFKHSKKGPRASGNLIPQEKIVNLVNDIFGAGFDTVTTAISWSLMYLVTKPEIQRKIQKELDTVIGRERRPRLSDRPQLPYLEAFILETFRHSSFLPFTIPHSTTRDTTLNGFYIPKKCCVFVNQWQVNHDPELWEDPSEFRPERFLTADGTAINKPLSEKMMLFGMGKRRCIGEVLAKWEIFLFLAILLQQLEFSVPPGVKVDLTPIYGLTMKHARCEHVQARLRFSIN

CYP3A4, sequence (P08684 2-503): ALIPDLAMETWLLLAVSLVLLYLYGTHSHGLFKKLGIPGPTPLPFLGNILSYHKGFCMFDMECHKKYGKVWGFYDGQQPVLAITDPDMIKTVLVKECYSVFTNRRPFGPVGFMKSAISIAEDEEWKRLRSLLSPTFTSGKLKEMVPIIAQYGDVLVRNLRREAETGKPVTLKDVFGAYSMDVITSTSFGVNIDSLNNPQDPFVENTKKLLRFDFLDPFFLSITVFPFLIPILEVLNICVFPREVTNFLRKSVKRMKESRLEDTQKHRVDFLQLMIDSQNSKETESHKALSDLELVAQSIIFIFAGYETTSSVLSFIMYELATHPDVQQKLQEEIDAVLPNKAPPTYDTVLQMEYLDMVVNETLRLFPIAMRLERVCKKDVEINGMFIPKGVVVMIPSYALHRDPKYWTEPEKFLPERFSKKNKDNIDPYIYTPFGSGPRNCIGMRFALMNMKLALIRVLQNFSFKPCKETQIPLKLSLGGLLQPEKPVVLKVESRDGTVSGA

IC50 (CYP3A4): 25.2 ± 3.1 µM | IC50 (CYP1A2): 26.5 ± 2.9 µM
SMILES: CC1=CC(=O)C(C(C)C)=CC1=O [thymoquinone]
